# Experimental data: ChEMBL document CHEMBL3217615, “Novel 3,5-bis(arylidiene)-4-piperidone based monocarbonyl analogs of curcumin: anticancer activity evaluation and mode of action study” (2014)
# Legend:
# Format in all cases: functional
# [1] = Growth inhibition of human OVCAR5 cells assessed as cell growth at 10^-4 M after 48 hrs by sulforhodamine B assay; details: OVCAR-5, 48 h, read-out: Activity
# SF-268 = test: Growth inhibition of human SF268 cells after 48 hrs by sulforhodamine B assay; details: SF-268, 48 h; for CC50: read-out: LC50 (the source's name)
# [2] = Growth inhibition of human NCI-ADR-RES cells assessed as cell growth at 10^-7 M after 48 hrs by sulforhodamine B assay; details: read-out: Activity
# NCI-H23 = test: Growth inhibition of human NCI-H23 cells assessed as cell growth at 10^-8 M after 48 hrs by sulforhodamine B assay; details: NCI-H23, 48 h; for growth at 0.01 µM: read-out: Activity; for TGI: read-out: pTGI (converted)
# SK-MEL-5 = test: Growth inhibition of human SK-MEL-5 cells assessed as cell growth at 10^-7 M after 48 hrs by sulforhodamine B assay; details: SK-MEL-5, 48 h, read-out: Activity
# [3] = Growth inhibition of human LOXIMVI cells assessed as cell growth at 10^-7 M after 48 hrs by sulforhodamine B assay; details: LOX IMVI, read-out: Activity
# M14 [4] = test: Growth inhibition of human M14 cells assessed as cell growth at 10^-4 M after 48 hrs by sulforhodamine B assay; details: M14, 48 h, read-out: Activity
# CAKI-1 [5] = test: Growth inhibition of human CAKI-1 cells assessed as cell growth at 10^-7 M after 48 hrs by sulforhodamine B assay; details: CAKI-1, 48 h, read-out: Activity
# M14 [6] = test: Growth inhibition of human M14 cells assessed as cell growth at 10^-6 M after 48 hrs by sulforhodamine B assay; details: M14, 48 h, read-out: Activity
# SR [7] = test: Growth inhibition of human SR cells assessed as cell growth at 10^-8 M after 48 hrs by sulforhodamine B assay; details: for growth at 0.01 µM: read-out: Activity; for TGI: read-out: pTGI (converted)
# [8] = Growth inhibition of human UO31 cells after 48 hrs by sulforhodamine B assay; details: UO-31, 48 h; for CC50: read-out: LC50 (the source's name)
# PC-3 = test: Growth inhibition of human PC3 cells assessed as cell growth at 10^-8 M after 48 hrs by sulforhodamine B assay; details: PC-3, 48 h; for growth at 0.01 µM: read-out: Activity; for TGI: read-out: pTGI (converted)
# KM12 = test: Growth inhibition of human KM12 cells assessed as cell growth at 10^-4 M after 48 hrs by sulforhodamine B assay; details: KM12, 48 h, read-out: Activity
# NCI-H522 [9] = test: Growth inhibition of human NCI-H522 cells after 48 hrs by sulforhodamine B assay; details: NCI-H522, 48 h; for CC50: read-out: LC50 (the source's name)
# DU-145 [10] = test: Growth inhibition of human DU145 cells assessed as cell growth at 10^-8 M after 48 hrs by sulforhodamine B assay; details: DU-145, 48 h; for growth at 0.01 µM: read-out: Activity; for TGI: read-out: pTGI (converted)
# HT-29 [11] = test: Growth inhibition of human HT-29 cells assessed as cell growth at 10^-7 M after 48 hrs by sulforhodamine B assay; details: HT-29, 48 h, read-out: Activity
# NCI-H460 = test: Growth inhibition of human NCI-H460 cells assessed as cell growth at 10^-6 M after 48 hrs by sulforhodamine B assay; details: NCI-H460, 48 h, read-out: Activity
# HT-29 [12] = test: Growth inhibition of human HT-29 cells assessed as cell growth at 10^-8 M after 48 hrs by sulforhodamine B assay; details: HT-29, 48 h; for growth at 0.01 µM: read-out: Activity; for TGI: read-out: pTGI (converted)
# SR [13] = test: Growth inhibition of human SR cells assessed as cell growth at 10^-7 M after 48 hrs by sulforhodamine B assay; details: read-out: Activity
# [14] = Growth inhibition of human UACC62 cells after 48 hrs by sulforhodamine B assay; details: UACC-62, 48 h; for CC50: read-out: LC50 (the source's name)
# [15] = Growth inhibition of human HOP92 cells after 48 hrs by sulforhodamine B assay; details: HOP-92, 48 h; for CC50: read-out: LC50 (the source's name)
# NCI-H322M [16] = test: Growth inhibition of human NCI-H322M cells after 48 hrs by sulforhodamine B assay; details: for CC50: read-out: LC50 (the source's name)
# [17] = Growth inhibition of human OVCAR4 cells assessed as cell growth at 10^-6 M after 48 hrs by sulforhodamine B assay; details: OVCAR-4, 48 h, read-out: Activity
# CAKI-1 [18] = test: Growth inhibition of human CAKI-1 cells assessed as cell growth at 10^-4 M after 48 hrs by sulforhodamine B assay; details: CAKI-1, 48 h, read-out: Activity
# SNB-75 = test: Growth inhibition of human SNB75 cells assessed as cell growth at 10^-6 M after 48 hrs by sulforhodamine B assay; details: SNB-75, 48 h, read-out: Activity
# NCI-H322M [19] = test: Growth inhibition of human NCI-H322M cells assessed as cell growth at 10^-8 M after 48 hrs by sulforhodamine B assay; details: for growth at 0.01 µM: read-out: Activity; for TGI: read-out: pTGI (converted)
# MDA-MB-231 = test: Growth inhibition of human MDA-MB-231 cells assessed as cell growth at 10^-4 M after 48 hrs by sulforhodamine B assay; details: MDA-MB-231, 48 h, read-out: Activity
# SR [20] = test: Growth inhibition of human SR cells assessed as cell growth at 10^-6 M after 48 hrs by sulforhodamine B assay; details: read-out: Activity
# CCRF-CEM = test: Growth inhibition of human CCRF-CEM cells assessed as cell growth at 10^-4 M after 48 hrs by sulforhodamine B assay; details: read-out: Activity
# DU-145 [21] = test: Growth inhibition of human DU145 cells after 48 hrs by sulforhodamine B assay; details: DU-145, 48 h; for CC50: read-out: LC50 (the source's name)
# NCI-H522 [22] = test: Growth inhibition of human NCI-H522 cells assessed as cell growth at 10^-8 M after 48 hrs by sulforhodamine B assay; details: NCI-H522, 48 h; for growth at 0.01 µM: read-out: Activity; for CC50: read-out: pLC50 (the source's name) (converted); for TGI: read-out: pTGI (converted)
# A549 = test: Growth inhibition of human A549/ATCC cells assessed as cell growth at 10^-6 M after 48 hrs by sulforhodamine B assay; details: A549, 48 h, read-out: Activity
# SK-MEL-28 = test: Growth inhibition of human SK-MEL-28 cells assessed as cell growth at 10^-7 M after 48 hrs by sulforhodamine B assay; details: SK-MEL-28, 48 h, read-out: Activity
# MCF7 = test: Growth inhibition of human MCF7 cells assessed as cell growth at 10^-6 M after 48 hrs by sulforhodamine B assay; details: MCF7, 48 h, read-out: Activity
smiles,measurement,setting,value
Cc1ccc(S(=O)(=O)N2C/C(=C\c3cc(F)cc(F)c3)C(=O)/C(=C/c3cc(F)cc(F)c3)C2)cc1,growth at 100 µM,[1],-90%
same,GI50,SF-268,431 nM
same,TGI,SF-268,2150 nM
same,CC50,SF-268,14400 nM
same,growth at 0.1 µM,[2],106%
same,GI50,NCI-H23,1740 nM
same,LC50,NCI-H23,26900 nM
same,growth at 0.01 µM,NCI-H23,98%
same,TGI,NCI-H23,5010 nM
same,growth at 0.1 µM,SK-MEL-5,89%
same,growth at 0.1 µM,[3],92%
same,growth at 100 µM,M14 [4],-86%
same,growth at 0.1 µM,CAKI-1 [5],94%
same,growth at 1 µM,M14 [6],12%
same,GI50,SR [7],34.7 nM
same,LC50,SR [7],> 100000 nM
same,growth at 0.01 µM,SR [7],93%
same,TGI,SR [7],251 nM
same,GI50,[8],1090 nM
same,TGI,[8],2370 nM
same,CC50,[8],5170 nM
same,GI50,PC-3,245 nM
same,LC50,PC-3,9330 nM
same,growth at 0.01 µM,PC-3,93%
same,TGI,PC-3,794 nM
same,growth at 100 µM,KM12,-88%
same,GI50,NCI-H522 [9],316 nM
same,TGI,NCI-H522 [9],962 nM
same,CC50,NCI-H522 [9],3850 nM
same,GI50,DU-145 [10],1230 nM
same,LC50,DU-145 [10],7590 nM
same,growth at 0.01 µM,DU-145 [10],106%
same,TGI,DU-145 [10],3090 nM
same,growth at 0.1 µM,HT-29 [11],91%
same,growth at 1 µM,NCI-H460,45%
same,GI50,HT-29 [12],229 nM
same,LC50,HT-29 [12],3160 nM
same,growth at 0.01 µM,HT-29 [12],105%
same,TGI,HT-29 [12],631 nM
same,growth at 0.1 µM,SR [13],14%
same,GI50,[14],212 nM
same,TGI,[14],514 nM
same,CC50,[14],1620 nM
same,GI50,[15],1110 nM
same,TGI,[15],3300 nM
same,CC50,[15],9780 nM
same,GI50,NCI-H322M [16],4700 nM
same,TGI,NCI-H322M [16],22800 nM
same,CC50,NCI-H322M [16],> 100000 nM
same,growth at 1 µM,[17],26%
same,growth at 100 µM,CAKI-1 [18],-57%
same,growth at 1 µM,SNB-75,82%
same,GI50,NCI-H322M [19],4680 nM
same,LC50,NCI-H322M [19],> 100000 nM
same,growth at 0.01 µM,NCI-H322M [19],102%
same,TGI,NCI-H322M [19],22900 nM
same,growth at 100 µM,MDA-MB-231,-82%
same,growth at 1 µM,SR [20],-20%
same,growth at 100 µM,CCRF-CEM,-29%
same,GI50,DU-145 [21],1240 nM
same,TGI,DU-145 [21],3080 nM
same,CC50,DU-145 [21],7620 nM
same,GI50,NCI-H522 [22],316 nM
same,growth at 0.01 µM,NCI-H522 [22],100%
same,CC50,NCI-H522 [22],3890 nM
same,TGI,NCI-H522 [22],955 nM
same,growth at 1 µM,A549,86%
same,growth at 0.1 µM,SK-MEL-28,93%
same,growth at 1 µM,MCF7,12%
O=C1/C(=C/c2ccc(Cl)cc2Cl)CN(S(=O)(=O)c2ccccc2)C/C1=C\c1ccc(Cl)cc1Cl,growth at 100 µM,[1],-2%
same,GI50,SF-268,447 nM
same,TGI,SF-268,> 100000 nM
same,CC50,SF-268,> 100000 nM
same,growth at 0.1 µM,[2],109%
same,GI50,NCI-H23,427 nM
same,LC50,NCI-H23,> 100000 nM
same,growth at 0.01 µM,NCI-H23,103%
same,TGI,NCI-H23,2690 nM
same,growth at 0.1 µM,SK-MEL-5,98%
same,growth at 0.1 µM,[3],89%
same,growth at 100 µM,M14 [4],31%
same,growth at 0.1 µM,CAKI-1 [5],92%
same,growth at 1 µM,M14 [6],93%
same,GI50,SR [7],186 nM
same,LC50,SR [7],> 100000 nM
same,growth at 0.01 µM,SR [7],93%
same,TGI,SR [7],871 nM
same,GI50,[8],236 nM
same,TGI,[8],639 nM
same,CC50,[8],4750 nM
same,GI50,PC-3,288 nM
same,LC50,PC-3,> 100000 nM
same,growth at 0.01 µM,PC-3,100%
same,TGI,PC-3,1020 nM
same,growth at 100 µM,KM12,-56%
same,GI50,NCI-H522 [9],854 nM
same,TGI,NCI-H522 [9],2990 nM
same,CC50,NCI-H522 [9],9730 nM
same,GI50,DU-145 [10],447 nM
same,LC50,DU-145 [10],> 100000 nM
same,growth at 0.01 µM,DU-145 [10],106%
same,TGI,DU-145 [10],18600 nM
same,growth at 0.1 µM,HT-29 [11],101%
same,growth at 1 µM,NCI-H460,-53%
same,GI50,HT-29 [12],295 nM
same,LC50,HT-29 [12],> 100000 nM
same,growth at 0.01 µM,HT-29 [12],102%
same,TGI,HT-29 [12],851 nM
same,growth at 0.1 µM,SR [13],70%
same,GI50,[14],804 nM
same,TGI,[14],2310 nM
same,CC50,[14],5810 nM
same,GI50,[15],1700 nM
same,TGI,[15],5550 nM
same,CC50,[15],> 100000 nM
same,GI50,NCI-H322M [16],680 nM
same,TGI,NCI-H322M [16],3560 nM
same,CC50,NCI-H322M [16],> 100000 nM
same,growth at 1 µM,[17],10%
same,growth at 100 µM,CAKI-1 [18],-11%
same,growth at 1 µM,SNB-75,38%
same,GI50,NCI-H322M [19],676 nM
same,LC50,NCI-H322M [19],> 100000 nM
same,growth at 0.01 µM,NCI-H322M [19],107%
same,TGI,NCI-H322M [19],3550 nM
same,growth at 100 µM,MDA-MB-231,-49%
same,growth at 1 µM,SR [20],-5%
same,growth at 100 µM,CCRF-CEM,-19%
same,GI50,DU-145 [21],446 nM
same,TGI,DU-145 [21],18800 nM
same,CC50,DU-145 [21],> 100000 nM
same,GI50,NCI-H522 [22],851 nM
same,growth at 0.01 µM,NCI-H522 [22],95%
same,CC50,NCI-H522 [22],9770 nM
same,TGI,NCI-H522 [22],3020 nM
same,growth at 1 µM,A549,-5%
same,growth at 0.1 µM,SK-MEL-28,93%
same,growth at 1 µM,MCF7,14%
